# Legend:
# Assay type in all cases: in vivo
# rice (Oryza sativa) = experiment: Test B flooded paddy test; settings: Flood, scale 0 to 100
# Description: (§1) Plant species in the flooded paddy test consisted of rice (Oryza sativa), umbrella sedge (Cyperus difformis), ducksalad (Heteranthera limosa) and barnyardgrass (Echinochloa crus-galli) grown to the 2-leaf stage for testing. At time of treatment, test pots were flooded to 3 cm above the soil surface, treated by application of test compounds directly to the paddy water, and then maintained at that water depth for the duration of the test. Treated plants and controls were maintained in a greenhouse for 13 to 15 days, after which time all species were compared to controls and visually evaluated. Plant response ratings, summarized in Table B, are based on a scale of 0 to 100 where 0 is no effect and 100 is complete control. A dash (-) response means no test result.
# [1] = tested on: umbrella sedge (Cyperus difformis); experiment: Test B flooded paddy test; settings: Flood, scale 0 to 100
# Description: as §1
# [2] = tested on: ducksalad (Heteranthera limosa); experiment: Test B flooded paddy test; settings: Flood, scale 0 to 100
# Description: as §1
# [3] = tested on: barnyardgrass (Echinochloa crus-galli); experiment: Test B flooded paddy test; settings: Flood
# Description: as §1
# [4] = tested on: morningglory (Ipomoea spp.); experiment: Test A postemergence; settings: 0 to 100 scale, 0 no effect, 100 complete control, approx. 10 days
# Description: (§2) Seeds of barnyardgrass (Echinochloa crus-galli), large crabgrass (Digitaria sanguinalis), giant foxtail (Setaria faberii), morningglory (Ipomoea spp.), pigweed (Amaranthus retroflexus), velvetleaf (Abutilon theophrasti), wheat (Triticum aestivum) and corn (Zea mays) were planted into a blend of loam soil and sand and treated preemergence with a directed soil spray using test chemicals formulated in a non-phytotoxic solvent mixture which included a surfactant. At the same time these species were also treated with postemergence applications of test compounds formulated in the same manner. Plants ranged in height from 2 to 10 cm and were in the one- to two-leaf stage for the postemergence treatments. Treated plants and untreated controls were maintained in a greenhouse for approximately 10 days, after which time all treated plants were compared to untreated controls and visually evaluated for injury. Plant response ratings, summarized in Table A, are based on a 0 to 100 scale where 0 is no effect and 100 is complete control.
# corn (Zea mays) [5] = experiment: Test A postemergence; settings: 0 to 100 scale, 0 no effect, 100 complete control, approx. 10 days
# Description: as §2
# [6] = tested on: velvetleaf (Abutilon theophrasti); experiment: Test A postemergence; settings: 0 to 100 scale, 0 no effect, 100 complete control, approx. 10 days
# Description: as §2
# [7] = tested on: wheat (Triticum aestivum); experiment: Test A postemergence; settings: 0 to 100 scale, 0 no effect, 100 complete control, approx. 10 days
# Description: as §2
# [8] = tested on: giant foxtail (Setaria faberii); experiment: Test A postemergence; settings: 0 to 100 scale, 0 no effect, 100 complete control, approx. 10 days
# Description: as §2
# [9] = tested on: pigweed (Amaranthus retroflexus); experiment: Test A postemergence; settings: 0 to 100 scale, 0 no effect, 100 complete control, approx. 10 days
# Description: as §2
# [10] = tested on: large crabgrass (Digitaria sanguinalis); experiment: Test A postemergence; settings: 0 to 100 scale, 0 no effect, 100 complete control, approx. 10 days
# Description: as §2
# [11] = tested on: barnyardgrass (Echinochloa crus-galli); experiment: Test A postemergence; settings: 0 to 100 scale, 0 no effect, 100 complete control, approx. 10 days
# Description: as §2
# [12] = tested on: morningglory (Ipomoea spp.); experiment: Test A preemergence; settings: 0 to 100 scale, 0 no effect, 100 complete control, approx. 10 days
# Description: as §2
# corn (Zea mays) [13] = experiment: Test A preemergence; settings: 0 to 100 scale, 0 no effect, 100 complete control, approx. 10 days
# Description: as §2
# [14] = tested on: velvetleaf (Abutilon theophrasti); experiment: Test A preemergence; settings: 0 to 100 scale, 0 no effect, 100 complete control, approx. 10 days
# Description: as §2
# [15] = tested on: wheat (Triticum aestivum); experiment: Test A preemergence; settings: 0 to 100 scale, 0 no effect, 100 complete control, approx. 10 days
# Description: as §2
# [16] = tested on: giant foxtail (Setaria faberii); experiment: Test A preemergence; settings: 0 to 100 scale, 0 no effect, 100 complete control, approx. 10 days
# Description: as §2
# [17] = tested on: pigweed (Amaranthus retroflexus); experiment: Test A preemergence; settings: 0 to 100 scale, 0 no effect, 100 complete control, approx. 10 days
# Description: as §2
# [18] = tested on: large crabgrass (Digitaria sanguinalis); experiment: Test A preemergence; settings: 0 to 100 scale, 0 no effect, 100 complete control, approx. 10 days
# Description: as §2
# [19] = tested on: barnyardgrass (Echinochloa crus-galli); experiment: Test A preemergence; settings: 0 to 100 scale, 0 no effect, 100 complete control, approx. 10 days
# Description: as §2
# [20] = 250 g ai/ha, scale 0 to 100 (0 no effect, 100 complete control)
smiles,measurement,setting,value
"O=C1CCCC(O)=C1C(=O)c1nc(Cl)c(-c2cccc(Cl)c2)n(C2CCCCC2)c1=O [Compound 3, 5-chloro-6-(3-chlorophenyl)-1-cyclohexyl-3-[(2-hydroxy-6-oxo-1-cyclohexen-1-yl)carbonyl]-2(1H)-pyrazinone]","Plant response rating, Rice",rice (Oryza sativa); 31 g ai/ha,0
same,"Plant response rating, Rice",rice (Oryza sativa); 62 g ai/ha,0
same,"Plant response rating, Rice",rice (Oryza sativa); 125 g ai/ha,0
same,"Plant response rating, Rice",rice (Oryza sativa); 250 g ai/ha,0
same,"Plant response rating, Sedge, Umbrella",[1]; 31 g ai/ha,0
same,"Plant response rating, Sedge, Umbrella",[1]; 62 g ai/ha,0
same,"Plant response rating, Sedge, Umbrella",[1]; 125 g ai/ha,30
same,"Plant response rating, Sedge, Umbrella",[1]; 250 g ai/ha,60
same,"Plant response rating, Ducksalad",[2]; 31 g ai/ha,0
same,"Plant response rating, Ducksalad",[2]; 62 g ai/ha,20
same,"Plant response rating, Ducksalad",[2]; 125 g ai/ha,80
same,"Plant response rating, Ducksalad",[2]; 250 g ai/ha,80
same,"Plant response rating, Barnyardgrass","[3]; 31 g ai/ha, scale 0 to 100",0
same,"Plant response rating, Barnyardgrass","[3]; 62 g ai/ha, scale 0 to 100",0
same,"Plant response rating, Barnyardgrass","[3]; 125 g ai/ha, scale 0 to 100",0
same,"Plant response rating, Barnyardgrass",[3]; [20],0
same,"Plant response rating, Morningglory",[4]; 62 g ai/ha,0
same,"Plant response rating, Morningglory",[4]; 250 g ai/ha,30
same,"Plant response rating, Corn",corn (Zea mays) [5]; 62 g ai/ha,0
same,"Plant response rating, Corn",corn (Zea mays) [5]; 250 g ai/ha,0
same,"Plant response rating, Velvetleaf",[6]; 62 g ai/ha,60
same,"Plant response rating, Velvetleaf",[6]; 250 g ai/ha,100
same,"Plant response rating, Wheat",[7]; 62 g ai/ha,0
same,"Plant response rating, Wheat",[7]; 250 g ai/ha,0
same,"Plant response rating, Foxtail, Giant",[8]; 62 g ai/ha,0
same,"Plant response rating, Foxtail, Giant",[8]; 250 g ai/ha,0
same,"Plant response rating, Pigweed",[9]; 62 g ai/ha,0
same,"Plant response rating, Pigweed",[9]; 250 g ai/ha,30
same,"Plant response rating, Crabgrass, Large",[10]; 62 g ai/ha,0
same,"Plant response rating, Crabgrass, Large",[10]; 250 g ai/ha,10
same,"Plant response rating, Barnyardgrass",[11]; 62 g ai/ha,0
same,"Plant response rating, Barnyardgrass",[11]; 250 g ai/ha,0
same,"Plant response rating, Morningglory",[12]; 62 g ai/ha,0
same,"Plant response rating, Morningglory",[12]; 250 g ai/ha,10
same,"Plant response rating, Corn",corn (Zea mays) [13]; 62 g ai/ha,0
same,"Plant response rating, Corn",corn (Zea mays) [13]; 250 g ai/ha,0
same,"Plant response rating, Velvetleaf",[14]; 62 g ai/ha,40
same,"Plant response rating, Velvetleaf",[14]; 250 g ai/ha,80
same,"Plant response rating, Wheat",[15]; 62 g ai/ha,0
same,"Plant response rating, Wheat",[15]; 250 g ai/ha,0
same,"Plant response rating, Foxtail, Giant",[16]; 62 g ai/ha,0
same,"Plant response rating, Foxtail, Giant",[16]; 250 g ai/ha,0
same,"Plant response rating, Pigweed",[17]; 62 g ai/ha,0
same,"Plant response rating, Pigweed",[17]; 250 g ai/ha,60
same,"Plant response rating, Crabgrass, Large",[18]; 62 g ai/ha,0
same,"Plant response rating, Crabgrass, Large",[18]; 250 g ai/ha,30
same,"Plant response rating, Barnyardgrass",[19]; 62 g ai/ha,0
same,"Plant response rating, Barnyardgrass",[19]; 250 g ai/ha,20
"O=C1CCCC(O)=C1C(=O)c1nc(Cl)c(-c2cccc(F)c2)n(C2CCCCC2)c1=O [Compound 2, 5-chloro-1-cyclohexyl-6-(3-fluorophenyl)-3-[(2-hydroxy-6-oxo-1-cyclohexen-1-yl)carbonyl]-2(1H)pyrazinone]","Plant response rating, Rice",rice (Oryza sativa); 31 g ai/ha,0
same,"Plant response rating, Rice",rice (Oryza sativa); 62 g ai/ha,0
same,"Plant response rating, Rice",rice (Oryza sativa); 125 g ai/ha,0
same,"Plant response rating, Rice",rice (Oryza sativa); 250 g ai/ha,0
same,"Plant response rating, Sedge, Umbrella",[1]; 31 g ai/ha,0
same,"Plant response rating, Sedge, Umbrella",[1]; 62 g ai/ha,0
same,"Plant response rating, Sedge, Umbrella",[1]; 125 g ai/ha,20
same,"Plant response rating, Sedge, Umbrella",[1]; 250 g ai/ha,60
same,"Plant response rating, Ducksalad",[2]; 31 g ai/ha,0
same,"Plant response rating, Ducksalad",[2]; 62 g ai/ha,0
same,"Plant response rating, Ducksalad",[2]; 125 g ai/ha,60
same,"Plant response rating, Ducksalad",[2]; 250 g ai/ha,80
same,"Plant response rating, Barnyardgrass","[3]; 31 g ai/ha, scale 0 to 100",0
same,"Plant response rating, Barnyardgrass","[3]; 62 g ai/ha, scale 0 to 100",0
same,"Plant response rating, Barnyardgrass","[3]; 125 g ai/ha, scale 0 to 100",0
same,"Plant response rating, Barnyardgrass",[3]; [20],0
same,"Plant response rating, Morningglory",[4]; 125 g ai/ha,60
same,"Plant response rating, Morningglory",[4]; 500 g ai/ha,90
same,"Plant response rating, Corn",corn (Zea mays) [5]; 125 g ai/ha,0
same,"Plant response rating, Corn",corn (Zea mays) [5]; 500 g ai/ha,0
same,"Plant response rating, Velvetleaf",[6]; 125 g ai/ha,70
same,"Plant response rating, Velvetleaf",[6]; 500 g ai/ha,100
same,"Plant response rating, Wheat",[7]; 125 g ai/ha,0
same,"Plant response rating, Wheat",[7]; 500 g ai/ha,0
same,"Plant response rating, Foxtail, Giant",[8]; 125 g ai/ha,0
same,"Plant response rating, Foxtail, Giant",[8]; 500 g ai/ha,20
same,"Plant response rating, Pigweed",[9]; 125 g ai/ha,30
same,"Plant response rating, Pigweed",[9]; 500 g ai/ha,70
same,"Plant response rating, Crabgrass, Large",[10]; 125 g ai/ha,0
same,"Plant response rating, Crabgrass, Large",[10]; 500 g ai/ha,30
same,"Plant response rating, Barnyardgrass",[11]; 125 g ai/ha,0
same,"Plant response rating, Barnyardgrass",[11]; 500 g ai/ha,30
same,"Plant response rating, Morningglory",[12]; 125 g ai/ha,0
same,"Plant response rating, Morningglory",[12]; 500 g ai/ha,80
same,"Plant response rating, Corn",corn (Zea mays) [13]; 125 g ai/ha,0
same,"Plant response rating, Corn",corn (Zea mays) [13]; 500 g ai/ha,0
same,"Plant response rating, Velvetleaf",[14]; 125 g ai/ha,0
same,"Plant response rating, Velvetleaf",[14]; 500 g ai/ha,90
same,"Plant response rating, Wheat",[15]; 125 g ai/ha,0
same,"Plant response rating, Wheat",[15]; 500 g ai/ha,0
same,"Plant response rating, Foxtail, Giant",[16]; 125 g ai/ha,0
same,"Plant response rating, Foxtail, Giant",[16]; 500 g ai/ha,30
same,"Plant response rating, Pigweed",[17]; 125 g ai/ha,0
same,"Plant response rating, Pigweed",[17]; 500 g ai/ha,80
same,"Plant response rating, Crabgrass, Large",[18]; 125 g ai/ha,0
same,"Plant response rating, Crabgrass, Large",[18]; 500 g ai/ha,50
same,"Plant response rating, Barnyardgrass",[19]; 125 g ai/ha,0
same,"Plant response rating, Barnyardgrass",[19]; 500 g ai/ha,40

# Source: patent US20140024527A1, “HERBICIDAL PYRAZINONES” (E I DU DE NEMOURS AND COMPANY, priority 2011, published 2014)
